By Kd is commonly meant the concentration at which binding is half-saturated.

Changes are numbered by the printed parent chain. Positions of bridges follow the written chain, without caps; N, C: chain ends. Non-standard residues stand in square brackets, D forms with d. Residues, ends and D or L forms follow the SMILES beside them. *: point of attachment. 5FAM = O=C1OC2(c3ccc(O)cc3Oc3cc(O)ccc32)c2ccc(C(=O)*)cc21; 6FAM = O=C1OC2(c3ccc(O)cc3Oc3cc(O)ccc32)c2cc(C(=O)*)ccc21; S5 = C=CCCC[C@](C)(N)C(=O)O

Experiment [1] relates to HeLa cells. The settings on record: live HeLa cells, SiR-tubulin, 5 μM peptide, 4 h pre-incubation, imaged 10 h every 5 min; 246–297 mitotic events over 3 imaging sessions.
Description: HeLa, MDA-MB-468 and MDA-MB-231 cells were plated in a 35 mm imaging dish (Ibidi) in complete growth medium. Prior to imaging, the DMEM or RPMI growth medium was replaced with Optimem medium (Gibco) supplemented with 10% FBS. Added to the medium was SiR-tubulin (Spirochrome) at 30 nM concentration, SPY555-DNA at 1:18000 dilution; both live-cell imaging probes were used at lower than recommended concentrations to avoid possible effects on mitosis. […] The Lattice Lightsheet 7 microscope was fitted with a 10x/0.4NA water immersion illumination lens, a 48x/1.0NA detection lens and a PCO.edge 4.2 sCMOS camera. Each field of view of approximately 500 μm × 297 μm × 33 μm was imaged at 0.2 μm lightsheet interval with the 640 nm channel (15 ms exposure, 15% laser power) and 561 nm channel (15 ms exposure, 10% laser power) over a 10 h period with scans taken every 5 min. To create movies and frame sequences the cell were imaged every 2.5 min for 5 h. Results were processed using Zeiss LLS software and Fiji (v.2.9.0).
For experiment [2], the target named is T1, biotinylated Avi-tagged ankle region of clathrin (aa 358–574) (Homo sapiens, UniProt Q00610).
T1 construct: The biotinylated Avi-tagged ankle region of clathrin (aa 358–574) was immobilised; made in house
T1 sequence (Q00610 358-574 limits assumed): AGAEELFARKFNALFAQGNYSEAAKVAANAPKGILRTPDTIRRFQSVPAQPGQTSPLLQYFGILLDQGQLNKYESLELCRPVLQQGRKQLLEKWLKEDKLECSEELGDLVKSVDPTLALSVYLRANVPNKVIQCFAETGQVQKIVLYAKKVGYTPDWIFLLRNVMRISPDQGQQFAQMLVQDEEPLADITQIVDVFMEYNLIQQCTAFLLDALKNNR
Put plainly: SPR binding kinetics. The settings on record: Biacore 1K+, average ± SD of duplicates; for kon: CHC aa 358–574 on SA chip, 60 s injection, read-out: ka (SPR). Here is the method:
The SPR assays were performed using a Biacore 1K+ instrument (Cytiva Life Sciences). The biotinylated Avi-tagged ankle region of clathrin (aa 358–574) was immobilised on the surface of a Streptavidin SA chip (Cytiva Life Sciences) to the density of 150 RU. The increasing concentrations of peptide analytes were diluted in the running buffer (20 mM HEPES pH 7.5, 150 mM NaCl, 5 mM DTT, 0.05% Tween-20) and injected at a flow rate of 30 μL/min). […] Each concentration was injected at 30 μL/min for 60 s. […] The Biacore evaluation software was used to calculate equilibrium KD values as well as ka and kd constants using 1:1 steady-state affinity model implemented into the BIAevaluation 3.0 software.
Background: In SPR one partner is held on a chip, and binding of the other changes the refractive index at the surface.

Experiment [3] addresses T2, CHC^ankle (clathrin heavy chain aa 358–574) (Homo sapiens, UniProt Q00610).
T2 construct: we used the minimal ankle region of CHC (CHC^ankle, aa 358–574); GST (TEV-cleavable); made in house
T2 sequence (Q00610 358-574): T1 sequence (Q00610 358-574 limits assumed)
The experiment in a line: Fluorescence polarisation direct binding assay, CHC ankle WT. Here is the method: (§1) Binding affinity of CHC and TACC3 peptides was calculated based on fluorescence polarization assays performed as reported previously, using linear and stapled FAM-TACC3 peptides corresponding to aa 549–570 of human TACC3 protein. Linear peptides were purchased from PPR (Fareham, UK); Alta Bioscience (Redditch, UK); Biomatik Corporation (Ontario, Canada). Stock solutions of peptides were 10 mM in DMSO. Binding assays were performed in triplicate in the binding buffer 20 mM HEPES pH 7.5, 150 mM NaCl, 5 mM DTT, 0.05% Tween-20. Data analysis was performed using a one-site specific binding model in Prism (GraphPad software, v10.1.0).
In general terms: Fluorescence polarisation rises when a labelled molecule tumbles more slowly, as on binding a larger partner.

Experiment [4] concerns HeLa cells. Put plainly: Confocal microscopy of fixed HeLa cells (peptide localisation, endogenous TACC3 and CHC on mitotic spindle). The class given is cell-based. Here is the method:
HeLa cells grown on glass coverslips in complete growth medium and treated with 2.5, 5 and 10 μM FAM-peptides for 5 h. Cells were washed with PBS and fixed with PTEMF (20 mM PIPES, pH 6.8, 10 mM EGTA, 1 mM MgCl2, 0.2% Triton X-100 and 4% paraformaldehyde) for 10 min and permeabilized at room temperature in 0.5% Triton-X100 in PBS for 10 min. Cells were blocked in 3% BSA in PBS for 1 h and incubated overnight with primary antibodies diluted in 3% BSA/PBS buffer followed by 1 h incubation with secondary antibodies. Primary antibodies were as follows: mouse anti-CHC (X22; GTX22731; 1:250), rabbit anti-TACC3 (ab134154, Abcam; 1:500). Secondary antibodies were anti-mouse IgG Atto 594 (1:250, 76085, Merck) and anti-rabbit IgG Atto 647N antibody (1:250, 40839, Merck). Coverslips were mounted with ProLong Gold antifade reagent with DAPI (Invitrogen). Peptides were imaged using their 6-FAM fluorescent tag with a 488 nm argon laser. Imaging was performed on a Zeiss LSM880 upright confocal microscope using a 40x/1.4 NA oil objective. Z-stacks comprising of 9–13 × 1 μm sections were acquired. Images were captured using identical settings. The region of interest (~0.6 μm^2) was quantified in three different locations over the spindle, cytoplasm and in the non-cell region of background. Images were analysed using Fiji (v.2.9.0).

The next experiment has as its target T3, K507A-CHC^ankle (Homo sapiens, UniProt Q00610, K507A).
T3 construct: we used the minimal ankle region of CHC (CHC^ankle, aa 358–574); GST (TEV-cleavable); made in house
T3 sequence (Q00610 358-574 K507A): T1 sequence (Q00610 358-574 limits assumed) with K150A
Put plainly: Fluorescence polarisation direct binding assay, K507A-CHC ankle. The conditions noted are these: direct binding FP, FAM labelled peptides; CHC with K507A substitution; mean of three experiments ± SD; read-out: KD, stapled and control peptides, CHC K507A.
Description: CHC constructs for binding studies were produced during previous work by cloning the respective CHC coding sequence of Q00610 (CLH1_HUMAN) aa 1–574 and 358–574, respectively) into a modified pGEX vector containing a TEV-cleavable GST tag[26]. Point mutations K506A and K507A were introduced by site-directed mutagenesis. GB1-TACC3 is the small protein GB1[47] fused to a short, disordered peptide sequence from human TACC3 (Q9Y6A5, aa 545–573). This hybrid sequence was cloned into a pETM6T1 vector which contains a TEV protease-cleavable N-terminal His-NusA tag.
as §1

`CC(C)C[C@H](NC(=O)[C@H](C)NC(=O)[C@@H]1CCCN1C(=O)[C@H](CC(=O)O)NC(=O)[C@H](C)NC(=O)[C@H](CCC(=O)O)NC(=O)[C@]1(C)CCCC=CCCC[C@](C)(NC(=O)[C@H](CCCCN)NC(=O)[C@H](CCCNC(=N)N)NC(=O)[C@H](CC(C)C)NC(=O)[C@H](C)NC(=O)[C@H](CO)NC(=O)[C@H](CCC(=O)O)NC(=O)[C@H](CCCCN)NC(=O)c2ccc3c(c2)C2(OC3=O)c3ccc(O)cc3Oc3cc(O)ccc32)C(=O)N[C@@H](CCC(=O)O)C(=O)N[C@@H](CC(C)C)C(=O)N[C@@H](CC(C)C)C(=O)N1)C(=O)N[C@@H](CCCNC(=N)N)C(=O)N[C@@H](CC(=O)O)C(=O)N[C@@H](CO)C(N)=O` [Neg. control SP TACC3] (6FAM-KESALRK[S5]ELL[S5]EADPALRDS-NH2; staple 8-12): the “median duration of mitosis from NEBD to anaphase onset” value in the experiment on HeLa cells [1] is 55 min.

Turning to `CC(C)C[C@H](NC(=O)[C@H](C)NC(=O)[C@H](CO)NC(=O)[C@H](CCC(=O)O)NC(=O)[C@H](CCCCN)NC(=O)c1ccc2c(c1)C(=O)OC21c2ccc(O)cc2Oc2cc(O)ccc21)C(=O)N[C@@H](CCCNC(=N)N)C(=O)N[C@@H](CCCCN)C(=O)N[C@@]1(C)CCCC=CCCC[C@@](C)(C(=O)N[C@@H](CCC(=O)O)C(=O)N[C@@H](Cc2ccccc2)C(=O)N[C@@H](CC(=O)O)C(=O)N2CCC[C@H]2C(=O)N[C@@H](CC(C)C)C(=O)N[C@@H](Cc2ccccc2)C(=O)N[C@@H](CCCNC(=N)N)C(=O)N[C@@H](CC(=O)O)C(=O)N[C@@H](CO)C(N)=O)NC(=O)[C@H](CC(C)C)NC(=O)[C@H](CC(C)C)NC(=O)[C@H](CCC(=O)O)NC1=O` [Opt SP TACC3] (5FAM-KESALRK[S5]ELL[S5]EFDPLFRDS-NH2; staple 8-12), the kon in experiment [2] was found to be 1.8e+06 M⁻¹ s⁻¹. Moreover, in experiment [3] (compared to the WT (parental) TACC3 peptide), the “fold increase in binding affinity for CHC compared to WT / parental TACC3 sequence” value is listed as “over a hundred-fold higher affinity”. For the same compound, the “colocalisation with endogenous TACC3 on the mitotic spindle” value in the experiment on HeLa cells [4] (fixed mitotic HeLa cells, FAM-labelled peptides, confocal microscopy) was “colocalised with endogenous TACC3 on the mitotic spindle”. The “reduction of endogenous TACC3 levels in the mitotic spindle” value in the experiment on HeLa cells [4] (metaphase HeLa cells, peptide 2.5, 5 and 10 μM, 5 h, compared to the negative control SP TACC3 peptide) is reported as ~ 20%.

For the compound `CC(C)C[C@H](NC(=O)[C@H](C)NC(=O)[C@H](CO)NC(=O)[C@H](CCC(=O)O)NC(=O)[C@H](CCCCN)NC(=O)[C@H](Cc1ccccc1)NC(=O)c1ccc2c(c1)C(=O)OC21c2ccc(O)cc2Oc2cc(O)ccc21)C(=O)N[C@@H](CCCNC(=N)N)C(=O)N[C@@H](CCCCN)C(=O)N[C@@]1(C)CCCC=CCCC[C@@](C)(C(=O)N[C@@H](CCCCN)C(=O)N[C@@H](Cc2ccccc2)C(=O)N[C@@H](CC(=O)O)C(=O)N2CCC[C@H]2C(=O)N[C@@H](CC(C)C)C(=O)N[C@@H](CC(C)C)C(=O)N[C@@H](CCCNC(=N)N)C(=O)N[C@@H](CC(=O)O)C(=O)N[C@@H](CO)C(N)=O)NC(=O)[C@H](Cc2ccc(O)cc2)NC(=O)[C@H](CC(C)C)NC(=O)[C@H](CCC(=O)O)NC1=O` [SP4E] (5FAM-FKESALRK[S5]ELY[S5]KFDPLLRDS-NH2; staple 9-13), the dissociation constant Kd came to 2.8 ± 0.2 µM in experiment [2] (CHC aa 358–574 on SA chip 150 RU, 20 mM HEPES pH 7.5, 150 mM NaCl, 5 mM DTT, 0.05% Tween-20, 30 μL/min); 34 ± 5 µM in experiment [3] (direct binding FP, FAM labelled peptides, CHC WT (385–574), mean of three experiments ± SD, read-out: KD, stapled and control peptides, CHC WT); 3.7 ± 1 µM at K507A-CHC^ankle. In experiment [2], the kon turned out to be 140000 M⁻¹ s⁻¹.

Values taken from publication PMC12204359, “Mechanistic Design of Cell-Penetrating Disruptors for a Phospho-Dependent Interaction” (Research Square, 2025).
